{"source": "patent US20250154138A1", "about": "“Small Molecule IL-17A Modulators” (BeiGene, Ltd., priority 2022, published 2025)", "target": "human IL-17A / human IL-17RA (Homo sapiens (Human), UniProt Q16552)", "sequence (Q16552 24-155)": "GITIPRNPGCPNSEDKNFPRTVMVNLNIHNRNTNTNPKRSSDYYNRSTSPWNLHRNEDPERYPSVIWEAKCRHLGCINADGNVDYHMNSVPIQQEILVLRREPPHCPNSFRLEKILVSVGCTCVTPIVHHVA", "assay": "Human IL-17A biochemical assay (HTRF, blocking of IL-17A binding to IL-17RA)", "details": "0.4 nM IL-17A, 0.3 nM IL-17RA, max compound concentration 10 uM", "method": "Compounds disclosed herein were tested for blocking of human IL-17A (Cat: C774, novoprotein) protein with its receptor human IL-17RA (Cat: C153, novoprotein) in an assay based on Homogeneous Time Resolved Fluorescence. 0.4 nM recombinant human IL-17A protein was pre-incubated with a serial dilution of compounds disclosed herein (maximum concentration is 10 uM, 2.7-fold serially diluted, 10 points) at room temperature for 3 hours in an assay buffer containing 20 mM HEPES, pH 7.5, 50 mM NaCl, 0.1% BSA, 0.2 mM DTT, 0.005% Tween 20. Then 0.3 nM recombinant human IL-17RA was added to plate and further incubated at room temperature for 1 hour. After that Mab Anti-6His Tb cryptate Gold (Cat: 61HI2TLB, Cisbio Bioassays) and MAb Anti Human IgG-XL665 (Cat: 61HFCXLB, Cisbio Bioassays) were added to plate and further incubated at room temperature for 1 hour. The HTRF signals (ex337 nm, em620 nm/665 nm) were read on BMG PHERAstar FSX instrument. The inhibition percentage of human IL-17A interaction with its receptor human IL-17RA in presence of increasing concentrations of compounds was calculated based on the ratio of […]. The IC50 for each compound was derived from fitting the data to the four-parameter logistic equation by Dotmatics.", "data": [{"compound": "CNC(=O)C1(N2CC(C3CCOC3)NC2=O)Cc2ccc(NC(=O)[C@@H](NC(=O)c3ccnn3C)C3CCCCC3)cc2C1", "note": "(stereo partly drawn) [Example 34, N-((1S)-1-cyclohexyl-2-((2-(methylcarbamoyl)-2-(2-oxo-4-(tetrahydrofuran-3-yl)imidazolidin-1-yl)-2,3-dihydro-1H-inden-5-yl)amino)-2-oxoethyl)-1-methyl-1H-pyrazole-5-carboxamide]", "values": [{"measurement": "IC50", "result": 8.4, "unit": "µM"}]}, {"compound": "CNC(=O)C1(N2CC(c3ccccc3)NC2=O)Cc2ccc(NC(=O)[C@@H](NC(=O)c3ccnn3C)C3CCCCC3)cc2C1", "note": "(stereo partly drawn) [Example 36, N-((1S)-1-cyclohexyl-2-((2-(methylcarbamoyl)-2-(2-oxo-4-phenylimidazolidin-1-yl)-2,3-dihydro-1H-inden-5-yl)amino)-2-oxoethyl)-1-methyl-1H-pyrazole-5-carboxamide]", "values": [{"measurement": "IC50", "result": 2.43, "unit": "µM"}]}, {"compound": "CNC(=O)C1(N2CC(C(C)(C)O)NC2=O)Cc2ccc(NC(=O)[C@@H](NC(=O)c3ccnn3C)C3CCCCC3)cc2C1", "note": "(stereo partly drawn) [Example 42, N-((1S)-1-cyclohexyl-2-((2-(4-(2-hydroxypropan-2-yl)-2-oxoimidazolidin-1-yl)-2-(methylcarbamoyl)-2,3-dihydro-1H-inden-5-yl)amino)-2-oxoethyl)-1-methyl-1H-pyrazole-5-carboxamide]", "values": [{"measurement": "IC50", "result": 3.17, "unit": "µM"}]}, {"compound": "CNC(=O)C1(N2C[C@@H](C(C)C)NC2=O)Cc2ccc(NC(=O)[C@@H](NC(=O)c3ccnn3C)C3CCC3)cc2C1", "note": "(stereo partly drawn) [Example 45, N-((1S)-1-cyclobutyl-2-((2-((R)-4-isopropyl-2-oxoimidazolidin-1-yl)-2-(methylcarbamoyl)-2,3-dihydro-1H-inden-5-yl)amino)-2-oxoethyl)-1-methyl-1H-pyrazole-5-carboxamide]", "values": [{"measurement": "IC50", "result": 5.13, "unit": "µM"}]}, {"compound": "CNC(=O)C1(N2C[C@@H](C(C)C)NC2=O)Cc2ccc(NC(=O)[C@@H](NC(=O)C3CC3)C3CCCCC3)cc2C1", "note": "(stereo partly drawn) [Example 49, 5-((S)-2-cyclohexyl-2-(cyclopropanecarboxamido)acetamido)-2-((R)-4-isopropyl-2-oxoimidazolidin-1-yl)-N-methyl-2,3-dihydro-1H-indene-2-carboxamide]", "values": [{"measurement": "IC50", "result": 1.81, "unit": "µM"}]}, {"compound": "CCOC(=O)N[C@H](C(=O)Nc1ccc2c(c1)CC(C(=O)NC)(N1C[C@@H](C(C)C)NC1=O)C2)C1CCCCC1", "note": "(stereo partly drawn) [Example 50, ethyl ((1S)-1-cyclohexyl-2-((2-((R)-4-isopropyl-2-oxoimidazolidin-1-yl)-2-(methylcarbamoyl)-2,3-dihydro-1H-inden-5-yl)amino)-2-oxoethyl)carbamate]", "values": [{"measurement": "IC50", "result": 1.58, "unit": "µM"}]}, {"compound": "CNC(=O)C1(N2C[C@@H](C(C)C)NC2=O)Cc2ccc(NC(=O)[C@@H](NC(=O)CCc3ccccc3)C3CCCCC3)cc2C1", "note": "(stereo partly drawn) [Example 52, 5-((S)-2-cyclohexyl-2-(3-phenylpropanamido)acetamido)-2-((R)-4-isopropyl-2-oxoimidazolidin-1-yl)-N-methyl-2,3-dihydro-1H-indene-2-carboxamide]", "values": [{"measurement": "IC50", "result": 1.31, "unit": "µM"}]}, {"compound": "CNC(=O)C1(N2C[C@@H](C(C)C)NC2=O)Cc2ccc(NC(=O)[C@@H](NC(=O)c3ccnn3C)c3ccccc3)cc2C1", "note": "(stereo partly drawn) [Example 60, N-((1S)-2-((2-((R)-4-isopropyl-2-oxoimidazolidin-1-yl)-2-(methylcarbamoyl)-2,3-dihydro-1H-inden-5-yl)amino)-2-oxo-1-phenylethyl)-1-methyl-1H-pyrazole-5-carboxamide]", "values": [{"measurement": "IC50", "result": 2.01, "unit": "µM"}]}, {"compound": "CNC(=O)C1(N2C[C@@H](C(C)C)NC2=O)Cc2ccc(NC(=O)[C@@H](NC(=O)c3ncnn3C)C3CCCCC3)cc2C1", "note": "(stereo partly drawn) [Example 64, N-((1S)-1-cyclohexyl-2-((2-((R)-4-isopropyl-2-oxoimidazolidin-1-yl)-2-(methylcarbamoyl)-2,3-dihydro-1H-inden-5-yl)amino)-2-oxoethyl)-1-methyl-1H-1,2,4-triazole-5-carboxamide]", "values": [{"measurement": "IC50", "result": 1.82, "unit": "µM"}]}, {"compound": "CNC(=O)C1(N2C[C@@H](C(C)C)NC2=O)Cc2ccc(NC(=O)C(NC(=O)c3ccnn3C)C3CCC(OC)CC3)cc2C1", "note": "(stereo partly drawn) [Example 72, N-(2-((2-((R)-4-isopropyl-2-oxoimidazolidin-1-yl)-2-(methylcarbamoyl)-2,3-dihydro-1H-inden-5-yl)amino)-1-(4-methoxycyclohexyl)-2-oxoethyl)-1-methyl-1H-pyrazole-5-carboxamide]", "values": [{"measurement": "IC50", "result": 3.63, "unit": "µM"}]}, {"compound": "CNC(=O)C1(N2CC(CC(F)(F)F)NC2=O)Cc2ccc(NC(=O)[C@@H](NC(=O)c3ccnn3C)C3CCCCC3)cc2C1", "note": "(stereo partly drawn) [Example 73, N-((1S)-1-cyclohexyl-2-((2-(methylcarbamoyl)-2-(2-oxo-4-(2,2,2-trifluoroethyl)imidazolidin-1-yl)-2,3-dihydro-1H-inden-5-yl)amino)-2-oxoethyl)-1-methyl-1H-pyrazole-5-carboxamide]", "values": [{"measurement": "IC50", "result": 0.391, "unit": "µM"}]}, {"compound": "CNC(=O)C1(N2C[C@@H](C(C)C)NC2=O)Cc2ccc(NC(=O)[C@@H](Nc3nc4ccccc4o3)C3CCCCC3)cc2C1", "note": "(stereo partly drawn) [Example 77, 5-((S)-2-(benzo[d]oxazol-2-ylamino)-2-cyclohexylacetamido)-2-((R)-4-isopropyl-2-oxoimidazolidin-1-yl)-N-methyl-2,3-dihydro-1H-indene-2-carboxamide]", "values": [{"measurement": "IC50", "result": 0.49, "unit": "µM"}]}, {"compound": "CNC(=O)C1(N2C[C@@H](C(C)C)NC2=O)Cc2ccc(NC(=O)[C@@H](NC(=O)c3ccnn3C)C3CCOCC3)cc2C1", "note": "(stereo partly drawn) [Example 85, N-((1S)-2-((2-((R)-4-isopropyl-2-oxoimidazolidin-1-yl)-2-(methylcarbamoyl)-2,3-dihydro-1H-inden-5-yl)amino)-2-oxo-1-(tetrahydro-2H-pyran-4-yl)ethyl)-1-methyl-1H-pyrazole-5-carboxamide]", "values": [{"measurement": "IC50", "result": 10.1, "unit": "µM"}]}, {"compound": "CNC(=O)C1(N2CC(CC3CCCCC3)NC2=O)Cc2ccc(NC(=O)[C@@H](NC(=O)c3ccnn3C)C3CCCCC3)cc2C1", "note": "(stereo partly drawn) [Example 88, N-((1S)-1-cyclohexyl-2-((2-(4-(cyclohexylmethyl)-2-oxoimidazolidin-1-yl)-2-(methylcarbamoyl)-2,3-dihydro-1H-inden-5-yl)amino)-2-oxoethyl)-1-methyl-1H-pyrazole-5-carboxamide]", "values": [{"measurement": "IC50", "result": 2.06, "unit": "µM"}]}, {"compound": "CNC(=O)C1(N2CC(C3CCc4ccccc43)NC2=O)Cc2ccc(NC(=O)[C@@H](NC(=O)c3ccnn3C)C3CCCCC3)cc2C1", "note": "(stereo partly drawn) [Example 92, N-((1S)-1-cyclohexyl-2-((2-(4-(2,3-dihydro-1H-inden-1-yl)-2-oxoimidazolidin-1-yl)-2-(methylcarbamoyl)-2,3-dihydro-1H-inden-5-yl)amino)-2-oxoethyl)-1-methyl-1H-pyrazole-5-carboxamide]", "values": [{"measurement": "IC50", "result": 3.04, "unit": "µM"}]}, {"compound": "CNC(=O)C1(N2C[C@@H](C(C)C)NC2=O)Cc2ccc(NC(=O)[C@H](NC(=O)c3ccnn3C)C(C3CC3)C3CC3)cc2C1", "note": "(stereo partly drawn) [Example 93, N-((2R)-1,1-dicyclopropyl-3-((2-((R)-4-isopropyl-2-oxoimidazolidin-1-yl)-2-(methylcarbamoyl)-2,3-dihydro-1H-inden-5-yl)amino)-3-oxopropan-2-yl)-1-methyl-1H-pyrazole-5-carboxamide]", "values": [{"measurement": "IC50", "result": 0.83, "unit": "µM"}]}, {"compound": "CNC(=O)C1(N2CCC(C)NC2=O)Cc2ccc(NC(=O)[C@@H](NC(=O)c3ccnn3C)C3CCCCC3)cc2C1", "note": "(stereo partly drawn) [Example 95, N-((1S)-1-cyclohexyl-2-((2-(4-methyl-2-oxotetrahydropyrimidin-1(2H)-yl)-2-(methylcarbamoyl)-2,3-dihydro-1H-inden-5-yl)amino)-2-oxoethyl)-1-methyl-1H-pyrazole-5-carboxamide]", "values": [{"measurement": "IC50", "result": 4.23, "unit": "µM"}]}]}
